Laboratory results: PMC9109478 (2022)

Assays:
[1] = test system: hRAS1 (DNA, G4) TCGGGTTGCGGGCGCAGGGCACGGGCG; test: ESI-MS; settings: K+ 1 mM; 100 mM TMAA, 50% methanol; 20 μM strand
[2] = test system: ODN-51 (DNA, G4) TAGGGTTAGGGTTAGGGTTAGGG; test: ESI-MS; settings: K+ 1 mM; 100 mM TMAA, 50% methanol; 20 μM strand
[3] = test system: NRAS (RNA, G4) UGUGGGAGGGGCGGGUCUGGG; test: CD melting; settings: K+ 100 mM; 10 mM Tris, pH 7.4; NRAS 5 μM; TPE-B : G4 1:1
[4] = test system: hRAS1 (DNA, G4) TCGGGTTGCGGGCGCAGGGCACGGGCG; test: CD melting; settings: K+ 100 mM; 10 mM Tris, pH 7.4; G4 15 μM; TPE-B : G4 1:1

CN(C)c1cc[n+](CCCCOc2ccc(C(=C(c3ccc(OCCCC[n+]4ccc(N(C)C)cc4)cc3)c3ccc(OCCCC[n+]4ccc(N(C)C)cc4)cc3)c3ccc(OCCCC[n+]4ccc(N(C)C)cc4)cc3)cc2)cc1
binding [1]: weak | binding [2]: weak | ΔTm [3]: 13.51 °C | ΔTm [4]: 0.07 °C
